Active and inactive are the calls of the source.

The target of data set [1] is Polymerase basic protein 2 (Influenza A virus (strain A/Puerto Rico/8/1934 H1N1)) (UniProt P03428). The data set can be described thus: Inhibition of influenza A virus polymerase PB2 expressed in HEK293T cells cotransfected with PGK-renilla-luciferase assessed as remaining activity at 10 uM pretreated with cells for 2 hrs followed by enzyme addition and measured after 24 hrs by dual-Glo luciferase assay relative to control. The note with it: time 26.0 hrs. The class given is cell-based.
Polymerase basic protein 2 (Influenza A virus (strain A/Puerto Rico/8/1934 H1N1)), sequence (P03428 whole entry, looked up, the tested form may be a part): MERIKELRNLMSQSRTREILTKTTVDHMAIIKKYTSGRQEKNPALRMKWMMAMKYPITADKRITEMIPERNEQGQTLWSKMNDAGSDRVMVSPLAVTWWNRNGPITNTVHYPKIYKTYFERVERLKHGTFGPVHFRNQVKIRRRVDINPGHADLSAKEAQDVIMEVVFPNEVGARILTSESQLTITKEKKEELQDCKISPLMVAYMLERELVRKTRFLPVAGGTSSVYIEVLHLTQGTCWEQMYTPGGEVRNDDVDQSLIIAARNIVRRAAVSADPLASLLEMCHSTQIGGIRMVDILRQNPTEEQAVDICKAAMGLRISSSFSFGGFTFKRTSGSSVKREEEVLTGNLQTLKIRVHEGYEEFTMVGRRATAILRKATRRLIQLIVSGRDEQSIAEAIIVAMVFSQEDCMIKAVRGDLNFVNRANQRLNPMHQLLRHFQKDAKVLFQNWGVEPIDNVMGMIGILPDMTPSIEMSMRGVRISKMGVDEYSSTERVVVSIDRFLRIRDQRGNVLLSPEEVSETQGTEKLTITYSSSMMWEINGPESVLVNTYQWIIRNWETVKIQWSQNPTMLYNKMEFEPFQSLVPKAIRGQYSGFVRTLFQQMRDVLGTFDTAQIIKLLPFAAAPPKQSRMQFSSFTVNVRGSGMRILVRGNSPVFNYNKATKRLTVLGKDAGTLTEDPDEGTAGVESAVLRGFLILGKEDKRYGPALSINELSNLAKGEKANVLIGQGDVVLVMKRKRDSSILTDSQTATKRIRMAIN

The target is the same in data set [2]. The experiment in a line: Inhibition of influenza A virus polymerase PB2 expressed in HEK293T cells cotransfected with PGK-renilla-luciferase at 10 uM pretreated with cells for 2 hrs followed by enzyme addition and measured after 24 hrs by dual-Glo luciferase assay relative to control. In kind it is cell-based. The following applies: time 26.0 hrs.
The target of data set [3] is T1, Polymerase basic protein 2 (Influenza A virus (strain A/Puerto Rico/8/1934 H1N1), UniProt P03428). The experiment in a line: Inhibition of influenza A virus polymerase PB2 expressed in HEK293T cells cotransfected with PGK-renilla-luciferase pretreated with cells for 2 hrs followed by enzyme addition and measured after 24 hrs by dual-Glo luciferase assay. The class given is cell-based.
T1 sequence (P03428 whole entry): as the sequence (P03428 whole entry, looked up, the tested form may be a part) above

The subject of data set [4] is Influenza A virus. The data set can be described thus: Antiviral activity against Influenza A virus A/WSN/33(H1N1) infected in A549 cells assessed as reduction in cell cytopathic effect incubated with cells for 2 hrs prior to viral infection followed by MDCK cells addition at 24 hrs pi and measured after 72 hrs by Reed-Muench method. The class given is functional, organism-based. On the technique in general: Protection from cytopathic effect is a common read-out in antiviral testing.

A short description of data set [5]: Cytotoxicity against human A549 cells assessed as reduction in cell viability incubated for 96 hrs by CCK-8 method. The class given is toxicity, cell-based. (Formazan colour is commonly taken as a measure of viable cells.)
Data set [6] is described as follows: Selectivity index, ratio of CC50 for human A549 cells to EC50 for antiviral activity against Influenza A virus A/WSN/33(H1N1) infected in A549 cells. In kind it is toxicity, cell-based. The note with it: read-out: Ratio CC50/EC50.
The target in data set [7] is T1, Polymerase basic protein 2. The data set can be described thus: Binding affinity to recombinant Influenza A virus polymerase PB2 cap-binding domain (318 to 413 residues) assessed as dissociation constant by ITC method.
For data set [8], the system named is Influenza A virus. The data set can be described thus: Antiviral activity against Influenza A virus A/WSN/33(H1N1) infected in BALB/c mouse assessed as log reduction in lung viral titer at 12 mg/kg, po BID administered starting from 2 hrs before infection and measured on day 3 (reference value: 6.916 +/- 0.4736). In kind it is functional. The note with it: time 3 day.

In data set [9] the test system is Influenza A virus. The data set can be described thus: Antiviral activity against Influenza A virus A/WSN/33(H1N1) infected in BALB/c mouse assessed as log10 reduction in viral titer at 12 mg/kg, po BID administered starting from 2 hrs before infection and measured on day 3. In kind it is functional. The note with it: time 3 day.
In data set [10] the test system is Influenza A virus. The experiment in a line: Antiviral activity against wild type Influenza A/WSN/33 at 0.3 uM. In kind it is functional, organism-based.
For data set [11], the target named is Voltage-gated inwardly rectifying potassium channel KCNH2 (Homo sapiens, UniProt Q12809). The experiment in a line: Inhibition of hERG by manual patch clamp method. The class given is toxicity. In general terms: Block of hERG is tested as a sign of cardiac risk.
Voltage-gated inwardly rectifying potassium channel KCNH2, sequence (Q12809 whole entry): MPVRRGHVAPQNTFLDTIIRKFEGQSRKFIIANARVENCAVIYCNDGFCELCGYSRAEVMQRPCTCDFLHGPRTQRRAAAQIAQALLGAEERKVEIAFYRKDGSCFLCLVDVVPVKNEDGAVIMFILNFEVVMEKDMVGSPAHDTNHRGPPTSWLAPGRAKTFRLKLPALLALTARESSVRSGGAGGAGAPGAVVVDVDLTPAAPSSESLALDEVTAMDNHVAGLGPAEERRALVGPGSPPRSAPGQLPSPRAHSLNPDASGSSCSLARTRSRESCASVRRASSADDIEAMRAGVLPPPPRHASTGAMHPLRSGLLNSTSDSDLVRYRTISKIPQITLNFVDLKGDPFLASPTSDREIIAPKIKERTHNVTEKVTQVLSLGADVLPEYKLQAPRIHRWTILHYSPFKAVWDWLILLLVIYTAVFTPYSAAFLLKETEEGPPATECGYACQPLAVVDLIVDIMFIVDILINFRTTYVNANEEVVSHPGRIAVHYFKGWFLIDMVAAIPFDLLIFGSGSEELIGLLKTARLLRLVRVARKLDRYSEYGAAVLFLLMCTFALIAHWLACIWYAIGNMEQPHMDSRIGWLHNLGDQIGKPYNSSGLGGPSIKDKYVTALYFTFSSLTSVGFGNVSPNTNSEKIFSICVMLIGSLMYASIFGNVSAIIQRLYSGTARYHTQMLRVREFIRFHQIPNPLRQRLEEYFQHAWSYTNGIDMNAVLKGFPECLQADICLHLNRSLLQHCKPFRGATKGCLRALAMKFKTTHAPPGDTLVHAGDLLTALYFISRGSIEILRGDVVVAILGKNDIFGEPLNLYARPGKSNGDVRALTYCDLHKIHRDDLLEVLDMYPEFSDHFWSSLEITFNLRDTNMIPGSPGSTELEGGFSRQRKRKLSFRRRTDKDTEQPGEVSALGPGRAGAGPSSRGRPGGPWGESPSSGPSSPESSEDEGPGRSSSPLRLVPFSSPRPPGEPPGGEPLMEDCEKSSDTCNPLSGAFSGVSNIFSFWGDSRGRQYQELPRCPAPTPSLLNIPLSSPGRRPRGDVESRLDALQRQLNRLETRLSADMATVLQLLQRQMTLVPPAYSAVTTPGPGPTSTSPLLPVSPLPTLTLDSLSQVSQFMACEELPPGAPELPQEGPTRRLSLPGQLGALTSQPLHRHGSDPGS
The nature of data set [12]: Stability in mouse plasma assessed as half life. The class given is ADME, cell-free.
The nature of data set [13]: Toxicity in BALB/c mouse assessed as animal death at 40 mg/kg, po administered once daily for 3 days. In kind it is organism-based. The note with it: in vivo, 72 h, time 3 day.
Data set [14] in a line: Toxicity in BALB/c mouse assessed as poisoning symptom at 40 mg/kg, po administered once daily for 3 days. In kind it is organism-based. The following applies: in vivo, 72 h, time 3 day.
A short description of data set [15]: Toxicity in BALB/c mouse assessed as change in body weight at 40 mg/kg, po administered for 3 days. The class given is organism-based. The following applies: in vivo, 72 h, time 3 day.
A short description of data set [16]: Toxicity in BALB/c mouse assessed as change in ALT level at 40 mg/kg, po administered for 3 days. The class given is organism-based. The following applies: in vivo, 72 h, time 3 day.
Data set [17] is described as follows: Toxicity in BALB/c mouse assessed as change in AST level at 40 mg/kg, po administered for 3 days. The class given is organism-based. The following applies: in vivo, 72 h, time 3 day.
The nature of data set [18]: Toxicity in BALB/c mouse assessed as change in Cr level at 40 mg/kg, po administered for 3 days. The class given is organism-based. The note with it: in vivo, 72 h, time 3 day.
A short description of data set [19]: Toxicity in BALB/c mouse infected with Influenza A virus A/WSN/33(H1N1) assessed as body weight loss at 12 mg/kg, po BID administered starting from 2 hrs before infection and measured on day 3. The class given is organism-based. The note with it: in vivo, 72 h, time 3 day.
Data set [20] has as its system Influenza A virus. The data set can be described thus: Antiviral activity against Influenza A virus A/WSN/33(H1N1) infected in BALB/c mouse assessed as recovery of AST level at 12 mg/kg, po BID administered starting from 2 hrs before infection and measured on day 3. In kind it is functional, organism-based. The following applies: time 3.0 day.
Data set [21] relates to Influenza A virus. The experiment in a line: Antiviral activity against Influenza A virus A/WSN/33(H1N1) infected in BALB/c mouse assessed as recovery of ALT level at 12 mg/kg, po BID administered starting from 2 hrs before infection and measured on day 3. The class given is functional, organism-based. The note with it: time 3.0 day.
Data set [22] relates to Influenza A virus. The experiment in a line: Antiviral activity against Influenza A virus A/WSN/33(H1N1) infected in BALB/c mouse assessed as increase in survival ratio at 12.5 to 25 mg/kg, po BID administered starting from 2 days post-infection to 9 days and measured for 15 days. The note with it: dose 12.5-25 mg/kg, time 15 day. In kind it is functional.
Data set [23] can be described thus: Toxicity in BALB/c mouse infected with Influenza A virus A/WSN/33(H1N1) assessed as body weight loss at 12.5 to 25 mg/kg, po BID administered starting from 2 days post-infection to 9 days and measured for 15 days. The class given is organism-based. The following applies: in vivo, 360 h, dose 12.5-25 mg/kg, time 15 day.
For data set [24], the target named is Polymerase basic protein 2 (Influenza A virus (strain A/Puerto Rico/8/1934 H1N1)) (UniProt P03428). The data set can be described thus: Potency index, ratio of m7GTP Kd to test compound Kd for recombinant Influenza A virus polymerase PB2 cap-binding domain (318 to 413 residues).

Broadly, the inhibition is how much of the control response was suppressed. Consider `O=C(O)[C@@H]1Cc2ccccc2CN1Nc1nc(-c2c[nH]c3ncc(F)cc23)ncc1F`, for which, in [1], the Activity came to 62%. Besides, in data set [2], the inhibition amounted to 38%.
Usually IC50 stands for the concentration needed to halve the response being measured. As usually defined, the EC50 is the concentration that produces a half-maximal response. In general, CC50 refers to the concentration giving 50% cytotoxicity. The Kd is the constant that tells how readily two partners part at equilibrium. With `CC(C)(C)N(CC(=O)O)Nc1nc(-c2c[nH]c3ncccc23)ncc1F`, in [1], the Activity came out at 0.2%. For the same compound, the inhibition in [2] worked out at 99.8%. Also, in [3], the IC50 came to 290 nM. The half-maximal effective concentration (EC50) in data set [4] stood at 170 nM. Besides, the CC50 at 96 h in data set [5] was > 100000 nM. In data set [6], the selectivity ratio was > 597. In [7], the Kd is 468 nM.
As for `O=C(O)CN(Nc1nc(-c2c[nH]c3ncccc23)ncc1F)C1CCC1`, in data set [1], the Activity was > 100%. Further, in [2], the inhibition came to 0%.
The corresponding values for `O=C(O)CN(Nc1nc(-c2c[nH]c3ncc(F)cc23)ncc1F)C1CCCC1` are 46% and 54%.
Turning to `O=C(O)[C@@H]1C[C@@H]2CCCC[C@@H]2N1Nc1nc(-c2c[nH]c3ncc(F)cc23)ncc1F`, the Activity in data set [1] was 0.1%. Moreover, the inhibition in data set [2] was found to be 99.9%. Moreover, in [3], the half-inhibitory concentration (IC50) is 360 nM. For the same compound, the concentration for a half-maximal effect (EC50) in data set [4] came out at 50 nM. Besides, in data set [5], the CC50 at 96 h stood at 54100 nM. Also, the selectivity ratio in [6] came out at 1024. Moreover, the equilibrium dissociation constant (Kd) in [7] came out at 202 nM.
Take `CCOC(=O)C1=C[C@@H](OC(CC)CC)[C@H](NC(C)=O)[C@@H](N)C1` [OSELTAMIVIR]: in [4], the EC50 turned out to be 40 nM.
For `O=C(O)CN(Cc1ccccc1)Nc1nc(-c2c[nH]c3ncc(F)cc23)ncc1F`, the Activity in data set [1] was > 100%. The inhibition in [2] is 0%.
With `CC(C1CC1)N(CC(=O)O)Nc1nc(-c2c[nH]c3ncc(F)cc23)ncc1F` (stereo not given), in data set [1], the Activity amounted to 41%. The inhibition in [2] stood at 59%.
Taken in the same sequence, the figures for `O=C(O)[C@@H]1CCCCN1Nc1nc(-c2c[nH]c3ncccc23)ncc1F` were 67% and 33%.
Regarding `O=C(O)[C@@H]1CCCCN1Nc1nc(-c2c[nH]c3ncc(F)cc23)ncc1F`, the Activity in [1] was 12%. For the same compound, the inhibition in [2] stood at 88%. In addition, the 50% inhibitory concentration (IC50) in [3] was 1450 nM. Also, in [4], the EC50 is 1150 nM. In data set [5], the 50% cytotoxic concentration (CC50) at 96 h was > 100000 nM. Moreover, the selectivity ratio in [6] is > 87.
As to `O=C(O)[C@@H]1CCCN1Nc1nc(-c2c[nH]c3ncc(F)cc23)ncc1F`, in [1], the Activity turned out to be 62%. The inhibition in data set [2] is 38%.
Taken in the same sequence, the figures for `O=C(O)[C@@H]1Cc2ccccc2CN1Nc1nc(-c2c[nH]c3ncccc23)ncc1F` were 73% and 27%.
Taken in the same sequence, the figures for `O=C(O)CN(Nc1nc(-c2c[nH]c3ncccc23)ncc1F)C1CCCC1` were 58% and 42%.
The corresponding values for `O=C(O)CN(Nc1nc(-c2c[nH]c3ncccc23)ncc1F)C1CCCCC1` are 34% and 65%.
Turning to `O=C(O)[C@H]1C2CCC(CC2)[C@@H]1Nc1nc(-c2c[nH]c3ncc(F)cc23)ncc1F` [PIMODIVIR], in data set [1], the Activity was found to be 0.1%. Also, in data set [2], the inhibition came out at 99.9%. In addition, the half-maximal inhibitory concentration (IC50) in data set [3] was found to be 4 nM. The EC50 in data set [4] came to 1 nM. Besides, the “log(activity)” value in data set [8] worked out at 0.964; in data set [9], 6.
Take `O=C(O)[C@@H]1CC2(CC2)CN1Nc1nc(-c2c[nH]c3ncc(F)cc23)ncc1F`: in [1], the Activity came to 21%. Further, the inhibition in data set [2] was determined as 79%. In data set [3], the concentration for half-maximal inhibition (IC50) was 3070 nM. Besides, the concentration giving a half-maximal response (EC50) in data set [4] is 1450 nM. The CC50 at 96 h in [5] turned out to be 87000 nM. Besides, in data set [6], the selectivity ratio worked out at 60. Also, the Kd in [7] amounted to 145 nM.
Broadly, the half-life is the time needed for the level to fall by half in the phase considered. On to `CC(C)(C)N(CC(=O)O)Nc1nc(-c2c[nH]c3ncc(F)cc23)ncc1F`, for which the Activity was 0.3% in data set [1]; “Non-Toxic” in data set [13]; “Non-Toxic” in data set [14]; “Non-Toxic” in data set [15]; “Non-Toxic” in [16]; “Non-Toxic” in [17]. In addition, the Activity result is listed as “Non-Toxic” in data set [18], “Non-Toxic” in data set [19], 85.7% in data set [22] and “Non-Toxic” in data set [23]. For the same compound, the inhibition in data set [2] came to 99.7%. For the same compound, the results for the half-maximal inhibitory concentration (IC50) in [3] and in [11] were 60 nM and > 10000 nM, respectively. Also, the EC50 in [4] amounted to 30 nM. In data set [5], the CC50 at 96 h was > 100000 nM. For the same compound, the selectivity ratio in data set [6] was > 2920. Besides, the Kd in data set [7] was determined as 46.2 nM. The result in data set [10], in [20] and in data set [21] was Active. For the same compound, the half-life in [12] was 12 h. Also, the figures for the “log(activity)” value in [8] and in [9] were 4.988 and 2, respectively. In [24], the Ratio was found to be 3850.
For `CC(C)(C)CN(CC(=O)O)Nc1nc(-c2c[nH]c3ncccc23)ncc1F`, in data set [1], the Activity was 65%. For the same compound, the inhibition in data set [2] is 35%.

These data come from ChEMBL document CHEMBL5385878, “Synthesis and structure-activity optimization of 7-azaindoles containing aza-β-amino acids targeting the influenza PB2 subunit” (Eur J Med Chem, 2023).
